Columns and labels:
Test in all cases: Bliss excess, mean over the matrix (fraction); higher = more synergy
[1] = system: NCCIT (Other Solid Carcinomas)
In short: (§1)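 After 24 hours at 37°C and 5% CO2 in 1536-well plates, cells in DMEM/F12 or RPMI plus 10% FBS received two-drug dose matrices for 72 hours. Viability came from CellTiter-Glo 2.0 luminescence and was scaled as inhibition, anchored at 0 by vehicle wells and at 1 by blank wells. Combination Emax is taken as the second-highest inhibition in the matrix, and Bliss excess as the observed combination effect less EA + EB − EA·EB, with EA and EB the single-agent effects.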

[2] = system: 8505C (Thyroid Gland Carcinoma)
In short: as §1

[3] = system: VMRC-RCZ (Kidney Carcinoma)
In short: as §1

RD (Rhabdomyosarcoma) = system: RD (Rhabdomyosarcoma)
In short: as §1

[4] = system: DMS-114 (Small Cell Lung Carcinoma)
In short: as §1

[5] = system: H9 (T-Cell Non-Hodgkin's Lymphoma)
In short: as §1

[6] = system: RPMI-8226 (Plasma Cell Myeloma)
In short: as §1

[7] = system: NCI-H661 (Non-Small Cell Lung Carcinoma)
In short: as §1

G-361 (Melanoma) = system: G-361 (Melanoma)
In short: as §1

[8] = system: CW-2 (Colorectal Carcinoma)
In short: as §1

[9] = system: KY821 (Acute Myeloid Leukemia)
In short: as §1

[10] = system: COR-L279 (Small Cell Lung Carcinoma)
In short: as §1

[11] = system: KU812 (Chronic Myelogenous Leukemia)
In short: as §1

[12] = system: MOG-G-CCM (Low Grade Glioma)
In short: as §1

[13] = system: JHH-4 (Hepatocellular Carcinoma)
In short: as §1

[14] = system: NCI-H929 (Plasma Cell Myeloma)
In short: as §1

[15] = system: SU-DHL-5 (B-Cell Non-Hodgkin's Lymphoma)
In short: as §1

[16] = system: NCI-H3122 (Lung Adenocarcinoma)
In short: as §1

[17] = system: SK-GT-4 (Esophageal Adenocarcinoma)
In short: as §1

[18] = system: PC-3 (Prostate Carcinoma)
In short: as §1

SMILES: COc1nnc2ccc(N3CCC(c4ccc(OCCN5CCN(C)C(=O)[C@H]5C)cc4)CC3)nn12 [AZD5153] + C[C@@H]1COCCN1C2=NC(=NC(=C2)C3(CC3)[S@](=N)(=O)C)C4=C5C=CNC5=NC=C4 [AZD6738] (first compound max 1 µM, 7x7, partner max 10 µM)
- Bliss excess [1]: -0.0702
- Bliss excess [2]: 0.0751
- Bliss excess [3]: 0.0926
- Bliss excess (RD (Rhabdomyosarcoma)): 0
- Bliss excess [4]: 0.0184
- Bliss excess [5]: -0.0108
- Bliss excess [6]: -0.0505
- Bliss excess [7]: 0.0929
- Bliss excess (G-361 (Melanoma)): -0.0191
- Bliss excess [8]: 0.0277
- Bliss excess [9]: -0.0196
- Bliss excess [10]: -0.0233
- Bliss excess [11]: -0.065
- Bliss excess [12]: -0.0378
- Bliss excess [13]: 0.134
- Bliss excess [14]: -0.0817
- Bliss excess [15]: 0.0107
- Bliss excess [16]: -0.0382
- Bliss excess [17]: -0.0252
- Bliss excess [18]: 0.0034

SMILES: CC1(C)CCC(CN2CCN(c3ccc(C(=O)NS(=O)(=O)c4ccc(NCC5CCOCC5)c([N+](=O)[O-])c4)c(Oc4cnc5[nH]ccc5c4)c3)CC2)=C(c2ccc(Cl)cc2)C1 [Venetoclax] + Cc1cc2ncnn2cc1Nc1ncc2c(n1)n(C1CCOCC1)c(=O)n2C [AZD7648] (first compound max 1 µM, 7x7, partner max 10 µM)
- Bliss excess [1]: -0.0326
- Bliss excess [2]: -0.0088
- Bliss excess [3]: -0.0696
- Bliss excess (RD (Rhabdomyosarcoma)): -0.0373
- Bliss excess [4]: -0.0205
- Bliss excess [5]: -0.0194
- Bliss excess [6]: 0.0285
- Bliss excess [7]: -0.0345
- Bliss excess (G-361 (Melanoma)): -0.0147
- Bliss excess [8]: 0.0049
- Bliss excess [9]: 0.056
- Bliss excess [10]: -0.0405
- Bliss excess [11]: -0.0174
- Bliss excess [12]: -0.0528
- Bliss excess [13]: -0.0059
- Bliss excess [14]: 0.0418
- Bliss excess [15]: -0.0362
- Bliss excess [16]: -0.0201
- Bliss excess [17]: -0.093
- Bliss excess [18]: -0.0245

SMILES: CC1(C)CCC(CN2CCN(c3ccc(C(=O)NS(=O)(=O)c4ccc(NCC5CCOCC5)c([N+](=O)[O-])c4)c(Oc4cnc5[nH]ccc5c4)c3)CC2)=C(c2ccc(Cl)cc2)C1 [Venetoclax] + COc1cc(Nc2ncc3c(n2)-c2ccc(Cl)cc2C(c2c(F)cccc2OC)=NC3)ccc1C(=O)O [Alisertib] (first compound max 1 µM, 7x7, partner max 10 µM)
- Bliss excess [1]: 0.0159
- Bliss excess [2]: 0.0151
- Bliss excess [3]: -0.0292
- Bliss excess (RD (Rhabdomyosarcoma)): 0.0506
- Bliss excess [4]: 0.0341
- Bliss excess [5]: -0.0674
- Bliss excess [6]: 0.0721
- Bliss excess [7]: -0.0206
- Bliss excess (G-361 (Melanoma)): 0.0863
- Bliss excess [8]: -0.0094
- Bliss excess [9]: 0.0079
- Bliss excess [10]: 0.103
- Bliss excess [11]: -0.0121
- Bliss excess [12]: 0.0552
- Bliss excess [13]: -0.0328
- Bliss excess [14]: 0.197
- Bliss excess [15]: -0.003
- Bliss excess [16]: -0.0278
- Bliss excess [17]: -0.107
- Bliss excess [18]: -0.0536

SMILES: Cn1cnc2c(F)c(Nc3ccc(Br)cc3Cl)c(C(=O)NOCCO)cc21 [Selumetinib] + C=CCn1c(=O)c2cnc(Nc3ccc(N4CCN(C)CC4)cc3)nc2n1-c1cccc(C(C)(C)O)n1 [AZD1775] (first compound max 10 µM, partner max 1 µM)
- Bliss excess [1]: -0.0826
- Bliss excess [2]: 0.0279
- Bliss excess [3]: -0.066
- Bliss excess (RD (Rhabdomyosarcoma)): -0.0128
- Bliss excess [4]: -0.0351
- Bliss excess [5]: -0.0037
- Bliss excess [6]: 0.0433
- Bliss excess [7]: -0.0891
- Bliss excess (G-361 (Melanoma)): -0.0084
- Bliss excess [8]: -0.005
- Bliss excess [9]: -0.115
- Bliss excess [10]: 0.0006
- Bliss excess [11]: -0.0367
- Bliss excess [12]: -0.0923
- Bliss excess [13]: -0.0782
- Bliss excess [14]: 0.0127
- Bliss excess [15]: 0.0041
- Bliss excess [16]: -0.126
- Bliss excess [17]: -0.0203
- Bliss excess [18]: -0.0947

SMILES: Cc1c2c(nn1C)CSCc1cc(n(C)n1)CSc1cc(c3ccccc3c1)OCCCc1c(C(=O)O)n(C)c3c-2c(Cl)ccc13 [AZD5991] + C=CCn1c(=O)c2cnc(Nc3ccc(N4CCN(C)CC4)cc3)nc2n1-c1cccc(C(C)(C)O)n1 [AZD1775] (first compound max 1 µM, partner max 1 µM)
- Bliss excess [1]: -0.0113
- Bliss excess [2]: 0.0256
- Bliss excess [3]: 0.0212
- Bliss excess (RD (Rhabdomyosarcoma)): 0.04
- Bliss excess [4]: -0.0295
- Bliss excess [5]: -0.0337
- Bliss excess [6]: -0.0006
- Bliss excess [7]: 0.0429
- Bliss excess (G-361 (Melanoma)): 0.0513
- Bliss excess [8]: 0.04
- Bliss excess [9]: -0.0329
- Bliss excess [10]: -0.0632
- Bliss excess [11]: -0.0284
- Bliss excess [12]: -0.0287
- Bliss excess [13]: 0.0308
- Bliss excess [14]: 0.0023
- Bliss excess [15]: 0.0028
- Bliss excess [16]: -0.058
- Bliss excess [17]: -0.0617
- Bliss excess [18]: 0.0111

SMILES: Cc1c2c(nn1C)CSCc1cc(n(C)n1)CSc1cc(c3ccccc3c1)OCCCc1c(C(=O)O)n(C)c3c-2c(Cl)ccc13 [AZD5991] + C1CN(CCC1(C(=O)N[C@@H](CCO)C2=CC=C(C=C2)Cl)N)C3=NC=NC4=C3C=CN4 [Capivasertib] (first compound max 1 µM, 7x7, partner max 3 µM)
- Bliss excess [1]: 0.076
- Bliss excess [2]: -0.0111
- Bliss excess [3]: -0.0347
- Bliss excess (RD (Rhabdomyosarcoma)): 0.0465
- Bliss excess [4]: 0.0696
- Bliss excess [5]: -0.0514
- Bliss excess [6]: 0.0079
- Bliss excess [7]: 0.0375
- Bliss excess (G-361 (Melanoma)): -0.0055
- Bliss excess [8]: 0.0132
- Bliss excess [9]: -0.0471
- Bliss excess [10]: 0.0417
- Bliss excess [11]: -0.0011
- Bliss excess [12]: -0.0178
- Bliss excess [13]: 0.0018
- Bliss excess [14]: -0.0168
- Bliss excess [15]: 0.0095
- Bliss excess [16]: 0.0144
- Bliss excess [17]: -0.0213
- Bliss excess [18]: -0.0404

SMILES: COc1cc2ncnc(Nc3ccc(F)c(Cl)c3)c2cc1OCCCN1CCOCC1 [Gefitinib] + CC(C)n1c(=O)n(C)c2cnc3cc(F)c(-c4ccc(OCCCN5CCCCC5)nc4)cc3c21 [AZD1390] (first compound max 10 µM, 7x7, partner max 0.3 µM)
- Bliss excess [1]: -0.0466
- Bliss excess [2]: -0.0691
- Bliss excess [3]: -0.0621
- Bliss excess (RD (Rhabdomyosarcoma)): -0.0699
- Bliss excess [4]: -0.0579
- Bliss excess [5]: -0.0723
- Bliss excess [6]: -0.0547
- Bliss excess [7]: -0.097
- Bliss excess (G-361 (Melanoma)): -0.0718
- Bliss excess [8]: -0.031
- Bliss excess [9]: -0.0553
- Bliss excess [10]: -0.0419
- Bliss excess [11]: -0.0436
- Bliss excess [12]: -0.0271
- Bliss excess [13]: -0.0751
- Bliss excess [14]: -0.0092
- Bliss excess [15]: -0.0317
- Bliss excess [16]: -0.0775
- Bliss excess [17]: -0.0846
- Bliss excess [18]: -0.0643

Reference: the supplement of paper PMC11061612
